Test results published in PubChem BioAssay AID2060492 (Molecular Pharmacology Branch, DTP, NCI, 2025).

Tested on: 695427-040-R-J1-PDC complex spheroids, viability percent T/C
Assay: Anticancer human tumor 695427-040-R-J1-PDC patient-derived colon adenocarcinoma cell line growth inhibition [GQUAD]
Settings: for IC50: curve of first compound; for viability, T/C: stronger effect = lower value; active = viability on the fitted dose curve at most 10% of control; inactive = the rest
How it was run: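 Viability of tumor cells grown as complex spheroids with endothelial and stromal cells, exposed to drug combinations. Top concentration at or near clinical Cmax (else 10 microM), diluted in half-log increments.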

[1] = second compound 0.0316 µM, first compound 0.0316 µM
[2] = second compound 0.0316 µM, first compound 0.316 µM
[3] = second compound 0.1 µM, first compound 0.0316 µM
[4] = second compound 0.1 µM, first compound 0.316 µM
[5] = second compound 0.316 µM, first compound 0.0316 µM
[6] = second compound 0.316 µM, first compound 0.316 µM
[7] = second compound 1 µM, first compound 0.0316 µM
[8] = second compound 1 µM, first compound 0.316 µM
[9] = second compound 3.16 µM, first compound 0.0316 µM
[10] = second compound 3.16 µM, first compound 0.316 µM
[11] = second compound 10 µM, first compound 0.0316 µM
[12] = second compound 10 µM, first compound 0.316 µM
[13] = second compound 0.0316 µM, first compound 0.1 µM
[14] = second compound 0.0316 µM, first compound 1 µM
[15] = second compound 0.0316 µM, first compound 3.16 µM
[16] = second compound 0.0316 µM, first compound 10 µM
[17] = second compound 0.1 µM, first compound 0.1 µM
[18] = second compound 0.1 µM, first compound 1 µM
[19] = second compound 0.1 µM, first compound 3.16 µM
[20] = second compound 0.1 µM, first compound 10 µM
[21] = second compound 0.316 µM, first compound 0.1 µM
[22] = second compound 0.316 µM, first compound 1 µM
[23] = second compound 0.316 µM, first compound 3.16 µM
[24] = second compound 0.316 µM, first compound 10 µM
[25] = second compound 1 µM, first compound 0.1 µM
[26] = second compound 1 µM, first compound 1 µM
[27] = second compound 1 µM, first compound 3.16 µM
[28] = second compound 1 µM, first compound 10 µM
[29] = second compound 3.16 µM, first compound 0.1 µM
[30] = second compound 3.16 µM, first compound 1 µM
[31] = second compound 3.16 µM, first compound 3.16 µM
[32] = second compound 3.16 µM, first compound 10 µM
[33] = second compound 10 µM, first compound 0.1 µM
[34] = second compound 10 µM, first compound 1 µM
[35] = second compound 10 µM, first compound 3.16 µM
[36] = second compound 10 µM, first compound 10 µM
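Also: spheroids exposed to compounds for seven days before readout.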

CC[C@@]1(O)C(=O)OCc2c1cc1n(c2=O)Cc2cc3c(CN(C)C)c(O)ccc3nc2-1 + Cc1[nH]c2ccc(F)cc2c1-c1nc2c3cccnc3c3ncccc3c2[nH]1
inactive: viability, T/C (second compound 0.0316 µM, first compound 0.000999 µM) 108% | viability, T/C (second compound 0.0316 µM, first compound 0.00316 µM) 105% | viability, T/C (second compound 0.0316 µM, first compound 0.00999 µM) 109% | viability, T/C [1] 71.5% | viability, T/C (second compound 0.0316 µM, first compound 0.0999 µM) 98.3% | viability, T/C [2] 82.1% | viability, T/C (second compound 0.1 µM, first compound 0.000999 µM) 94.5% | viability, T/C (second compound 0.1 µM, first compound 0.00316 µM) 89.4% | viability, T/C (second compound 0.1 µM, first compound 0.00999 µM) 94.1% | viability, T/C [3] 78.7% | viability, T/C (second compound 0.1 µM, first compound 0.0999 µM) 94.2% | viability, T/C [4] 89.8% | viability, T/C (second compound 0.316 µM, first compound 0.000999 µM) 97.3% | viability, T/C (second compound 0.316 µM, first compound 0.00316 µM) 90.4% | viability, T/C (second compound 0.316 µM, first compound 0.00999 µM) 92.9% | viability, T/C [5] 88.2% | viability, T/C (second compound 0.316 µM, first compound 0.0999 µM) 101% | viability, T/C [6] 78.9% | viability, T/C (second compound 1 µM, first compound 0.000999 µM) 85.2% | viability, T/C (second compound 1 µM, first compound 0.00316 µM) 97.2% | viability, T/C (second compound 1 µM, first compound 0.00999 µM) 92.6% | viability, T/C [7] 95% | viability, T/C (second compound 1 µM, first compound 0.0999 µM) 91.3% | viability, T/C [8] 73.2% | viability, T/C (second compound 3.16 µM, first compound 0.000999 µM) 62.5% | viability, T/C (second compound 3.16 µM, first compound 0.00316 µM) 82.9% | viability, T/C (second compound 3.16 µM, first compound 0.00999 µM) 79.3% | viability, T/C [9] 72.4% | viability, T/C (second compound 3.16 µM, first compound 0.0999 µM) 84.4% | viability, T/C [10] 77.3% | viability, T/C (second compound 10 µM, first compound 0.000999 µM) 58.9% | viability, T/C (second compound 10 µM, first compound 0.00316 µM) 78.8% | viability, T/C (second compound 10 µM, first compound 0.00999 µM) 83.8% | viability, T/C [11] 78.2% | viability, T/C (second compound 10 µM, first compound 0.0999 µM) 89.5% | viability, T/C [12] 73.1%
> 0.316 µM: IC50 (second compound 0.0316 µM) | IC50 (second compound 0.1 µM) | IC50 (second compound 0.316 µM) | IC50 (second compound 1 µM) | IC50 (second compound 3.16 µM) | IC50 (second compound 10 µM)

COc1cc(C2c3cc4c(cc3C(OC3OC5COC(C)OC5C(O)C3O)C3COC(=O)C23)OCO4)cc(OC)c1O (stereo unspecified) + Cc1[nH]c2ccc(F)cc2c1-c1nc2c3cccnc3c3ncccc3c2[nH]1
inactive: viability, T/C [1] 118% | viability, T/C [13] 90.7% | viability, T/C [2] 105% | viability, T/C [14] 102% | viability, T/C [15] 87.4% | viability, T/C [16] 78.1% | viability, T/C [3] 110% | viability, T/C [17] 92.6% | viability, T/C [4] 113% | viability, T/C [18] 68.8% | viability, T/C [19] 84.1% | viability, T/C [20] 76.7% | viability, T/C [5] 112% | viability, T/C [21] 83.3% | viability, T/C [6] 80.3% | viability, T/C [22] 87.3% | viability, T/C [23] 85.8% | viability, T/C [24] 74.1% | viability, T/C [7] 91.9% | viability, T/C [25] 95.4% | viability, T/C [8] 90.5% | viability, T/C [26] 87.6% | viability, T/C [27] 91.5% | viability, T/C [28] 71.2% | viability, T/C [9] 81.2% | viability, T/C [29] 85.9% | viability, T/C [10] 82.7% | viability, T/C [30] 82.7% | viability, T/C [31] 81.3% | viability, T/C [32] 69% | viability, T/C [11] 65.9% | viability, T/C [33] 74.3% | viability, T/C [12] 87% | viability, T/C [34] 83.8% | viability, T/C [35] 68.7% | viability, T/C [36] 64.3%
> 10 µM: IC50 (second compound 0.0316 µM) | IC50 (second compound 0.1 µM) | IC50 (second compound 0.316 µM) | IC50 (second compound 1 µM) | IC50 (second compound 3.16 µM) | IC50 (second compound 10 µM)

COc1cccc2c1C(=O)c1c(O)c3c(c(O)c1C2=O)CC(O)(C(=O)CO)CC3OC1CC(N)C(O)C(C)O1 (stereo unspecified) + Cc1[nH]c2ccc(F)cc2c1-c1nc2c3cccnc3c3ncccc3c2[nH]1
4.85 µM: IC50 (second compound 3.16 µM)
5.56 µM: IC50 (second compound 10 µM)
> 10 µM: IC50 (second compound 0.0316 µM) | IC50 (second compound 0.1 µM) | IC50 (second compound 0.316 µM) | IC50 (second compound 1 µM)
inactive: viability, T/C [1] 98.6% | viability, T/C [13] 88.4% | viability, T/C [2] 96.9% | viability, T/C [14] 87.1% | viability, T/C [15] 60.6% | viability, T/C [16] 50.7% | viability, T/C [3] 104% | viability, T/C [17] 98.8% | viability, T/C [4] 91.3% | viability, T/C [18] 71.9% | viability, T/C [19] 74.4% | viability, T/C [20] 48.9% | viability, T/C [5] 95.2% | viability, T/C [21] 77.9% | viability, T/C [6] 87.1% | viability, T/C [22] 73.8% | viability, T/C [23] 71.5% | viability, T/C [24] 49.6% | viability, T/C [7] 83% | viability, T/C [25] 92.4% | viability, T/C [8] 78.8% | viability, T/C [26] 72.5% | viability, T/C [27] 71.2% | viability, T/C [28] 49.6% | viability, T/C [9] 59.6% | viability, T/C [29] 86.8% | viability, T/C [10] 70.4% | viability, T/C [30] 59.4% | viability, T/C [31] 56.8% | viability, T/C [32] 42.5% | viability, T/C [11] 65.9% | viability, T/C [33] 80.1% | viability, T/C [12] 65% | viability, T/C [34] 70.9% | viability, T/C [35] 62.2% | viability, T/C [36] 37%
